According to ChEMBL document CHEMBL3271991, “A series of hexahydro[1,4]oxazino[3,4-a]isoquinolines as potential neuroleptics” (J Med Chem, 1978):
Activity calls are given as the source filed them. The rule behind the calls is not given here.

Experiments:
Vulpes vulpes [1] = assay: Neuroleptic activity in wild fox assessed as taming effect at 32 mg/kg, ip; type: functional, organism-based; parameters: dose 32 mg/kg
[2] = Toxicity in wild fox assessed as ataxia at 32 mg/kg, ip; type: organism-based; parameters: dose 32 mg/kg, route intraperitoneal; conditions: vulpes vulpes, in vivo
Mus musculus [3] = assay: Neuroleptic activity in ip dosed mouse assessed as blockade of traction reflex by measuring failure to grasp wire with hind paws measured for 5 secs; type: functional
Mus musculus [4] = assay: Neuroleptic activity in ip dosed mouse assessed as blockade of prehensile reflex by measuring failure to hang measured for 5 secs; type: functional
Gerbillinae [5] = assay: Neuroleptic activity in gerbil assessed as escape latency time at 2 mg/kg, ip measured up to 50 mins by sidman avoidance test relative to control; type: functional; conditions: route intraperitoneal
Gerbillinae [6] = assay: Neuroleptic activity in gerbil assessed as escape latency time at 4 mg/kg, ip measured up to 50 mins by sidman avoidance test relative to control; type: functional; conditions: route intraperitoneal
Gerbillinae [7] = assay: Neuroleptic activity in gerbil assessed as escape latency time at 8 mg/kg, ip measured up to 50 mins by sidman avoidance test relative to control; type: functional; conditions: route intraperitoneal
Gerbillinae [8] = assay: Neuroleptic activity in gerbil assessed as escape latency time at 16 mg/kg, ip measured up to 50 mins by sidman avoidance test relative to control; type: functional; conditions: route intraperitoneal
[9] = Toxicity in ip dosed mouse; type: organism-based; conditions: in vivo
[10] = Toxicity in po dosed mouse; type: organism-based; conditions: in vivo
Gerbillinae [11] = assay: Neuroleptic activity in ip dosed gerbil up to 50 mins by sidman avoidance test; type: functional; conditions: read-out: MED
Rhesus monkey [12] = assay: Toxicity in monkey assessed as ataxia at 16 mg/kg, ip; type: organism-based, Macaca mulatta; parameters: dose 16 mg/kg, route intraperitoneal; conditions: in vivo
[13] = Toxicity in wild fox assessed as ataxia at 16 mg/kg, ip; type: organism-based; parameters: dose 16 mg/kg, route intraperitoneal; conditions: vulpes vulpes, in vivo
Rhesus monkey [14] = assay: Neuroleptic activity in monkey assessed as taming effect at 16 mg/kg, ip; type: functional, organism-based; parameters: dose 16 mg/kg; conditions: Macaca mulatta
Vulpes vulpes [15] = assay: Neuroleptic activity in wild fox assessed as taming effect at 16 mg/kg, ip; type: functional, organism-based; parameters: dose 16 mg/kg
Felis catus = assay: Induction of muscle relaxant effect in cat at 20 mg/kg, iv; type: functional, organism-based; parameters: dose 20 mg/kg
Mus musculus [16] = assay: Neuroleptic activity in ip dosed mouse assessed as blockade of righting reflex by measuring failure to right to normal position measured for 30 secs; type: functional
Mus musculus [17] = assay: Neuroleptic activity in ip dosed mouse assessed as blockade of corneal reflex by measuring failure to blink; type: functional; conditions: Cornea
Mus musculus [18] = assay: Neuroleptic activity in mouse assessed as blockade of righting reflex by measuring failure to right to normal position at 640 mg/kg, ip measured for 30 secs; type: functional, organism-based; parameters: dose 640 mg/kg
Mus musculus [19] = assay: Neuroleptic activity in mouse assessed as blockade of traction reflex by measuring failure to grasp wire with hind paws at 640 mg/kg, ip measured for 5 secs; type: functional, organism-based; parameters: dose 640 mg/kg
Mus musculus [20] = assay: Neuroleptic activity in mouse assessed as blockade of prehensile reflex by measuring failure to hang at 640 mg/kg, ip measured for 5 secs; type: functional, organism-based; parameters: dose 640 mg/kg
Mus musculus [21] = assay: Neuroleptic activity in mouse assessed as blockade of corneal reflex by measuring failure to blink at 640 mg/kg, ip; type: functional, organism-based; parameters: dose 640 mg/kg; conditions: Cornea
Gerbillinae [22] = assay: Neuroleptic activity in gerbil assessed as escape latency time at 20 mg/kg, ip measured up to 50 mins by sidman avoidance test relative to control; type: functional; conditions: route intraperitoneal
Gerbillinae [23] = assay: Neuroleptic activity in gerbil assessed as escape latency time at 40 mg/kg, ip measured up to 50 mins by sidman avoidance test relative to control; type: functional; conditions: route intraperitoneal
Gerbillinae [24] = assay: Neuroleptic activity in gerbil assessed as escape latency time at 80 mg/kg, ip measured up to 50 mins by sidman avoidance test relative to control; type: functional; conditions: route intraperitoneal
Gerbillinae [25] = assay: Neuroleptic activity in gerbil assessed as escape latency time at 2.5 mg/kg, ip measured up to 50 mins by sidman avoidance test relative to control; type: functional; conditions: route intraperitoneal
Gerbillinae [26] = assay: Neuroleptic activity in gerbil assessed as escape latency time at 5 mg/kg, ip measured up to 50 mins by sidman avoidance test relative to control; type: functional; conditions: route intraperitoneal
Gerbillinae [27] = assay: Neuroleptic activity in gerbil assessed as escape latency time at 10 mg/kg, ip measured up to 50 mins by sidman avoidance test relative to control; type: functional; conditions: route intraperitoneal
Gerbillinae [28] = assay: Neuroleptic activity in gerbil assessed as escape latency time at 0.5 mg/kg, ip measured up to 50 mins by sidman avoidance test relative to control; type: functional; conditions: route intraperitoneal
Gerbillinae [29] = assay: Neuroleptic activity in gerbil assessed as escape latency time at 1 mg/kg, ip measured up to 50 mins by sidman avoidance test relative to control; type: functional; conditions: route intraperitoneal
Vulpes vulpes [30] = assay: Neuroleptic activity in wild fox assessed as taming effect at 4 mg/kg, ip; type: functional, organism-based; parameters: dose 4 mg/kg
[31] = Toxicity in wild fox assessed as ataxia at 4 mg/kg, ip; type: organism-based; parameters: dose 4 mg/kg, route intraperitoneal; conditions: vulpes vulpes, in vivo
[32] = Mus musculus, ip, read-out: ED50

In the case of CNC1=Nc2ccccc2C(c2ccccc2)=[N+]([O-])C1, the Activity (Vulpes vulpes [1]) is reported as “Active” and the Activity [2] is reported as “Non-toxic”.
CCN(CC)C(=O)[C@H]1CN2CCc3cc(OC)c(OC)cc3[C@H]2CO1.Cl (racemic) gave an ED50 (Mus musculus [3]; [32]) of 100 mg/kg, an ED50 (Mus musculus [4]; [32]) of 400 mg/kg and a Time (Gerbillinae [5]) of 0.6 s. For the same molecule, the Time (Gerbillinae [6]) was 0.8 s, the Time (Gerbillinae [7]) was 0.5 s and the Time (Gerbillinae [8]) was 0.8 s. It also gave an LD50 [9] of 1100 mg/kg, an LD50 [10] of 1400 mg/kg and a minimal effective dose (Gerbillinae [11]) of 25 mg/kg. The Activity (Rhesus monkey [12]) was “Non-toxic” and the Activity [13] was “Non-toxic”.
In the case of CCN(CC)C(=O)[C@H]1CN2CCc3cc(OC)c(OC)cc3[C@H]2CO1 (racemic), the Activity (Rhesus monkey [14]) is reported as “Active”, the Activity (Vulpes vulpes [15]) is reported as “Active” and the Activity (Felis catus) is reported as “Active”.
For COc1cc2c(cc1OC)[C@H]1CO[C@H](C#N)CN1CC2 (relative stereo), the ED50 (Mus musculus [3]; [32]) was 180 mg/kg and the ED50 (Mus musculus [4]; [32]) was over 640 mg/kg.
In the case of CCN(CC)C(=O)[C@H]1CN2CCc3cc(OC)c(OC)cc3[C@H]2CO1 (relative stereo), the ED50 (Mus musculus [3]; [32]) is reported as 110 mg/kg and the ED50 (Mus musculus [4]; [32]) is reported as 500 mg/kg.
Work on COc1cc2c(cc1OC)[C@H]1CO[C@@H](C(=O)N3CCCC3)CN1CC2 (relative stereo) yielded an ED50 (Mus musculus [3]; [32]) of 180 mg/kg and an ED50 (Mus musculus [4]; [32]) of over 640 mg/kg.
With COc1cc2c(cc1OC)[C@H]1CO[C@@H](C(=O)N3CCCCC3)CN1CC2 (relative stereo) the ED50 (Mus musculus [16]) was 280 mg/kg, the ED50 (Mus musculus [3]; [32]) was 180 mg/kg and the ED50 (Mus musculus [4]; [32]) was 280 mg/kg. The ED50 (Mus musculus [17]) was 450 mg/kg.
Work on COc1cc2c(cc1OC)[C@H]1CO[C@@H](C(=O)N3CCOCC3)CN1CC2 (relative stereo) yielded an ED50 (Mus musculus [3]; [32]) of 200 mg/kg and an ED50 (Mus musculus [4]; [32]) of over 640 mg/kg.
With CCOC(=O)[C@H]1CN2CCc3cc(OC)c(OC)cc3[C@H]2CO1 (relative stereo) the Activity (Mus musculus [18]) was “inactive”, the Activity (Mus musculus [19]) was “inactive” and the Activity (Mus musculus [20]) was “inactive”. For the same molecule, the Activity (Mus musculus [21]) was “inactive”.
Molecule CCN(CC)C(=O)C1CN2CCc3cc(OC)c(OC)cc3C2CO1 (stereo in doubt; 19) has an ED50 (Mus musculus [3]; [32]) of 125 mg/kg, an ED50 (Mus musculus [4]; [32]) of 400 mg/kg and a Time (Gerbillinae [22]) of 0.5 s. The Time (Gerbillinae [23]) was 1.2 s and the Time (Gerbillinae [24]) was 2.2 s.
With CCN(CC)C(=O)C1CN2CCc3cc(OC)c(OC)cc3C2CO1 (stereo in doubt; 20) the ED50 (Mus musculus [3]) was 150 mg/kg, the ED50 (Mus musculus [4]) was 460 mg/kg and the Time (Gerbillinae [22]) was 2.4 s. It also gave a Time (Gerbillinae [25]) of 0.5 s, a Time (Gerbillinae [26]) of 0.6 s and a Time (Gerbillinae [27]) of 1.2 s.
CN(C)CCCN1c2ccccc2Sc2ccc(Cl)cc21 [CHLORPROMAZINE] gave an ED50 (Mus musculus [16]) of 115 mg/kg, an ED50 (Mus musculus [3]; [32]) of 6 mg/kg and an ED50 (Mus musculus [4]; [32]) of 74 mg/kg. For the same molecule, the ED50 (Mus musculus [17]) was 160 mg/kg, the Time (Gerbillinae [5]) was 0.8 s and the Time (Gerbillinae [28]) was 1 s. For the same molecule, the Time (Gerbillinae [29]) was 1.1 s, the Activity (Vulpes vulpes [30]) was “Active” and the Activity [31] was “Non-toxic”.
Molecule CCCC(C)(COC(N)=O)COC(N)=O [MEPROBAMATE] has an ED50 (Mus musculus [16]) of 320 mg/kg, an ED50 (Mus musculus [3]; [32]) of 160 mg/kg and an ED50 (Mus musculus [4]; [32]) of 225 mg/kg. The ED50 (Mus musculus [17]) was 400 mg/kg.
CCC1(c2ccccc2)C(=O)NC(=O)NC1=O [PHENOBARBITAL] gave an ED50 (Mus musculus [16]) of 140 mg/kg, an ED50 (Mus musculus [3]; [32]) of 64 mg/kg and an ED50 (Mus musculus [4]; [32]) of 82 mg/kg. For the same molecule, the ED50 (Mus musculus [17]) was 100 mg/kg.
